Measurements: the supplement of paper PMC8617591

Columns and labels:
[1] = tested on: Mycobacterium tuberculosis Erdman (autoluminescent); experiment: AUC25, normalised area under dose response up to IC25 (fraction (0-1)); higher = more potent at low dose
Experimental: (§1)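 DiaMOND dose responses (10 doses, 1.5- or 2-fold spacing, equipotent around IC90) of autoluminescent M. tuberculosis Erdman in 8 in vitro models. Read-out is OD600, or luminescence for the intracellular (J774) and dormancy models, background-subtracted and normalised to untreated wells. A 3-parameter Hill fit gives Einf and AUC25 (area to IC25 normalised by IC25); GRinf comes from a Hill fit of the Hafner normalised growth rate. Biological replicates passing QC are averaged. Single drugs only.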

[2] = tested on: Mycobacterium tuberculosis Erdman (autoluminescent); experiment: Einf, fitted maximum growth inhibition (fraction); higher = stronger maximal inhibition
Experimental: as §1

[3] = tested on: Mycobacterium tuberculosis Erdman (autoluminescent); experiment: GRinf, maximum normalised growth rate inhibition (unitless (-1 to 1)); higher = less effect (negative = killing)
Experimental: as §1

COc1nc2ccc(Br)cc2cc1[C@@H](c1ccccc1)[C@@](O)(CCN(C)C)c1cccc2ccccc12 [bedaquiline]
Conditions	AUC25, [1]	Einf, [2]	GRinf, [3]
in vitro model: acidic pH 5.7, time point: constant (~7 days, model-specific)	0.109	0.921	-0.617
in vitro model: acidic pH 5.7, time point: terminal (~4-5 doublings, model-specific)	0.0902	0.988	-0.475
in vitro model: intracellular J774, time point: constant = terminal	–	0.979	-0.319

Conditions	AUC25, [1]	Einf, [2]	GRinf, [3]
in vitro model: butyrate, time point: constant (~7 days, model-specific)	0.0777	0.964	-0.167
in vitro model: butyrate, time point: terminal (~4-5 doublings, model-specific)	0.0609	0.984	-0.138
in vitro model: cholesterol 0.05 mM, time point: constant (~7 days, model-specific)	0.0895	0.766	-0.328
in vitro model: cholesterol 0.05 mM, time point: terminal (~4-5 doublings, model-specific)	0.0718	0.946	-0.335
in vitro model: cholesterol-high 0.2 mM, time point: constant (~7 days, model-specific)	0.0559	0.975	-0.613
in vitro model: cholesterol-high 0.2 mM, time point: terminal (~4-5 doublings, model-specific)	0.0462	1	-0.647
in vitro model: dormancy (butyrate + nitrate, low O2), time point: constant (~7 days, model-specific)	0.0618	0.908	0.184
in vitro model: dormancy (butyrate + nitrate, low O2), time point: terminal (~4-5 doublings, model-specific)	0.0799	0.979	-0.0503
in vitro model: standard 7H9 glycerol, time point: constant = terminal	0.0758	0.97	-0.118
in vitro model: valerate, time point: constant (~7 days, model-specific)	0.0789	0.92	-0.142
in vitro model: valerate, time point: terminal (~4-5 doublings, model-specific)	0.0549	0.963	-0.0955

CC(C)/N=c1\cc2n(-c3ccc(Cl)cc3)c3ccccc3nc-2cc1Nc1ccc(Cl)cc1 [clofazimine]
Conditions	AUC25, [1]	Einf, [2]	GRinf, [3]
in vitro model: acidic pH 5.7, time point: constant (~7 days, model-specific)	0.0949	0.748	0.0361
in vitro model: acidic pH 5.7, time point: terminal (~4-5 doublings, model-specific)	0.0888	0.966	-0.229
in vitro model: intracellular J774, time point: constant = terminal	–	0.997	-0.696

Conditions	AUC25, [1]	Einf, [2]	GRinf, [3]
in vitro model: butyrate, time point: constant (~7 days, model-specific)	0.0887	0.963	-0.0183
in vitro model: butyrate, time point: terminal (~4-5 doublings, model-specific)	0.0859	0.989	-0.0492
in vitro model: cholesterol 0.05 mM, time point: constant (~7 days, model-specific)	0.129	0.527	0.329
in vitro model: cholesterol 0.05 mM, time point: terminal (~4-5 doublings, model-specific)	0.13	0.844	0.0361
in vitro model: cholesterol-high 0.2 mM, time point: constant (~7 days, model-specific)	0.12	0.938	-0.473
in vitro model: cholesterol-high 0.2 mM, time point: terminal (~4-5 doublings, model-specific)	0.114	1	-0.945
in vitro model: dormancy (butyrate + nitrate, low O2), time point: constant (~7 days, model-specific)	0.115	0.876	0.339
in vitro model: dormancy (butyrate + nitrate, low O2), time point: terminal (~4-5 doublings, model-specific)	0.0838	0.922	-0.0947
in vitro model: standard 7H9 glycerol, time point: constant = terminal	0.113	0.965	-0.0492
in vitro model: valerate, time point: constant (~7 days, model-specific)	0.155	0.88	-0.412
in vitro model: valerate, time point: terminal (~4-5 doublings, model-specific)	0.0638	0.895	0.239

CC[C@@H](CO)NCCN[C@@H](CC)CO [ethambutol]
Conditions	AUC25, [1]	Einf, [2]	GRinf, [3]
in vitro model: acidic pH 5.7, time point: constant (~7 days, model-specific)	0.103	0.785	-0.121
in vitro model: acidic pH 5.7, time point: terminal (~4-5 doublings, model-specific)	0.0746	0.963	-0.204
in vitro model: intracellular J774, time point: constant = terminal	–	0.977	-0.237

Conditions	AUC25, [1]	Einf, [2]	GRinf, [3]
in vitro model: butyrate, time point: constant (~7 days, model-specific)	0.0706	0.86	0.144
in vitro model: butyrate, time point: terminal (~4-5 doublings, model-specific)	0.0701	0.918	0.173
in vitro model: cholesterol 0.05 mM, time point: constant (~7 days, model-specific)	0.0906	0.621	0.0788
in vitro model: cholesterol 0.05 mM, time point: terminal (~4-5 doublings, model-specific)	0.0751	0.907	-0.193
in vitro model: cholesterol-high 0.2 mM, time point: constant (~7 days, model-specific)	0.0267	0.85	-0.161
in vitro model: cholesterol-high 0.2 mM, time point: terminal (~4-5 doublings, model-specific)	0.0346	1	-0.768
in vitro model: dormancy (butyrate + nitrate, low O2), time point: constant (~7 days, model-specific)	0.0829	0.777	0.544
in vitro model: dormancy (butyrate + nitrate, low O2), time point: terminal (~4-5 doublings, model-specific)	0.0685	0.914	0.295
in vitro model: standard 7H9 glycerol, time point: constant = terminal	0.0599	0.852	0.208
in vitro model: valerate, time point: constant (~7 days, model-specific)	0.0683	0.728	0.301
in vitro model: valerate, time point: terminal (~4-5 doublings, model-specific)	0.0665	0.832	0.297

NNC(=O)c1ccncc1 [isoniazid]
Conditions	AUC25, [1]	Einf, [2]	GRinf, [3]
in vitro model: acidic pH 5.7, time point: constant (~7 days, model-specific)	0.0571	0.674	0.0942
in vitro model: acidic pH 5.7, time point: terminal (~4-5 doublings, model-specific)	0.0392	0.933	-0.101
in vitro model: intracellular J774, time point: constant = terminal	–	0.932	-0.113

Conditions	AUC25, [1]	Einf, [2]	GRinf, [3]
in vitro model: butyrate, time point: constant (~7 days, model-specific)	0.0446	0.937	-0.0682
in vitro model: butyrate, time point: terminal (~4-5 doublings, model-specific)	0.0452	0.981	-0.137
in vitro model: cholesterol 0.05 mM, time point: constant (~7 days, model-specific)	0.101	0.738	-0.177
in vitro model: cholesterol 0.05 mM, time point: terminal (~4-5 doublings, model-specific)	0.0895	0.915	-0.208
in vitro model: cholesterol-high 0.2 mM, time point: constant (~7 days, model-specific)	0.0813	0.905	-0.466
in vitro model: cholesterol-high 0.2 mM, time point: terminal (~4-5 doublings, model-specific)	0.0704	0.994	-0.567
in vitro model: dormancy (butyrate + nitrate, low O2), time point: constant (~7 days, model-specific)	0.0691	0.903	0.286
in vitro model: dormancy (butyrate + nitrate, low O2), time point: terminal (~4-5 doublings, model-specific)	0.0601	0.982	-0.0707
in vitro model: standard 7H9 glycerol, time point: constant = terminal	0.0311	0.882	0.145
in vitro model: valerate, time point: constant (~7 days, model-specific)	0.0515	0.881	0.0138
in vitro model: valerate, time point: terminal (~4-5 doublings, model-specific)	0.0365	0.932	0.0316
